BindingDB's records for doi:10.1016/j.bmc.2012.02.019 (Emory University, 2012)

Test: Displacement of [3H]-AVP from human V1b receptor after […] by liquid scintillation counting

`CS(=O)(=O)N1CCC(Oc2ccc(CC(=O)N3CCC(N4C(=O)CCc5ccccc54)CC3)c(OC/C=C/I)c2)CC1` showed a Ki of over 1 µM.
